According to patent US20260207564A1, “DOSAGE REGIME OF ORFORGLIPRON FOR TREATING A SUBJECT WITH TYPE 2 DIABETES (T2D), OBESITY, OR OVERWEIGHT WITH AT LEAST ONE WEIGHT RELATED COMORBIDITY” (Eli Lilly and Company, priority 2022, published 2026):

Type: in vivo, human
Description: Two Phase 2 studies have evaluated the safety and efficacy of Compound 1a for the treatment of T2D and another for treatment of obesity or overweight with at least one weight related comorbidity.
The 36 and 45 mg cohorts were subdivided in a 36 mg-1 and 36 mg-2 as well as 45 mg-1 and 45 mg-2 respectively, as different starting doses, dose escalations and dose escalation steps were investigated in these subgroup cohorts (FIG. 4).
Eligible male or female participants were >18 years of age with T2D with a HbA1c 7.0% to 10.5% and a body mass index (BMI) of ≥23 kg/m2, treated with diet and exercise alone or with a stable dose of metformin and with a stable body weight (≤5% body weight gain and/or loss) for at least 3 months prior to screening/Visit 1.
The study period included a 2-week screening/lead in period and a 26-week treatment period. During the treatment period, doses were escalated for all treatment groups. The dose escalation period ranged from 4 to 12 weeks depending on dose group. The initial dose was 2 or 3 mg followed by additional escalation steps depending on assigned cohort (FIG. 4). […] All participants were provided healthy eating and exercise education by study personnel throughout the trial.
Key Safety and tolerability endpoints included the frequency of patient- and investigator-reported adverse events, rate and incidence of hypoglycaemia events (glucose <70 mg/dL [3.9 mmol/L] and ≥54 mg/dL [3.0 mmol/L], or glucose <54 mg/dL [3.0 mmol/L]), and change in safety laboratory parameters, electrocardiogram, and vital signs.
The estimand used for efficacy analyses was an “efficacy estimand”, representing the average treatment effect for the randomized population if the treatment was administered as intended, thus including data from all randomized participants who received at least one dose of study drug and excluding data after permanent discontinuation of study drug. All tests of treatment effects were conducted at a 2-sided alpha level of 0.05 without adjustment for multiple comparisons, and 2-sided 95% CIs were calculated.
Safety analyses were conducted by comparing safety of OFG with placebo and with dulaglutide irrespective of adherence to study drug. The safety analyses were conducted using the safety analysis set, which includes all randomized participants who received at least one dose of study drug. The results were presented in summary statistics, point estimates, and 95% confidence intervals along with p-values for treatment comparisons.

dulaglutide [reference compound]
percentage of patients who attained an HbA1c of 7% or less (26 weeks, dulaglutide 1.5 mg): 64.1% | pulse rate changes from baseline (in vivo): +2.3 bpm | mean changes from baseline in body weight (week 26, dulaglutide): -3.9 kg | mean change in HbA1c from baseline (week 26, dulaglutide 1.5 mg): −1.1%
